These results are taken from patent US20100222334A1 (priority 2007, published 2010).

Structures are written as SMILES.

The conditions of data set [1]: human, in vivo. The procedure: In order to determine the relative bioavailability, an open-label, single dose, two-period, crossover study is conducted in 24 healthy subjects.
Data set [2] is described as follows: Bioavailability of new 80 mg valsartan pediatric tablet relative to 80 mg commercial tablet, single-dose crossover. As to conditions: in the same study. The procedure: The study is conducted in 24 healthy subjects using an open-label, single-dose, two period, randomized, crossover study design.
For data set [3] the following is noted: administered as immediate release tablet formulation (Diovan); cited from earlier work.

`CCCCC(=O)N(Cc1ccc(-c2ccccc2-c2nnn[nH]2)cc1)[C@H](C(=O)O)C(C)C` [Valsartan, (S)—N-(1-carboxy-2-methylprop-1-yl)-N-pentanoyl-N-[2′-(1H-tetrazol-5-yl)biphenyl-4-ylmethyl]amine]: the “intersubject variability (CV %) for the Cmax and AUCτ” value in data set [1] is reported as 24-40%. Moreover, the “variability of valsartan PK” value in data set [2] is reported as 30-50%. Moreover, the bioavailability entry in data set [3] is “around 30%”.
